Measurements: publication PMC7614683, “A small molecule PI3Kα activator for cardioprotection and neuroregeneration” (Nature, 2023)

Target: T1, full length p110α/p85α (Homo sapiens, UniProt P42336)
T1 construct: Full-length human p110α was expressed either in a complex with full-length human p85α (for HTS, biochemistry and HDX-MS); 6xHis tag followed by TEV protease site (N); host or cells: Spodoptera frugiperda Sf9, baculovirus
Assay: HDX-MS
Assay type: binding
Description: Sample preparation: HDX-MS experiments were carried out as described previously. […] In total, three biological replicates, i.e. three separate protein preparations, each with exchange experiments carried out in triplicate were conducted. Data presented in the manuscript is a single biological replicate. Data acquisition and analysis were as follows: Each sample was thawed and injected onto an M-Class Acquity UPLC with HDX Technology (Waters) kept at 0.1°C. Proteins were digested in-line using an Enzymate Pepsin Column (Waters, #186007233) at 15°C for 2 min at 200 μl/min. Peptic peptides were then eluted onto an Acquity UPLC BEH C18 Column (Waters, #186002346) equilibrated in Pepsin-A buffer (0.1% formic acid) and separated using a 5-35% gradient of Pepsin-B buffer (0.1% formic acid, 99% acetonitrile) over 7 min at a flowrate of 40 μl/min. Data were collected on a Waters Cyclic IMS, with an electrospray ionisation source, from 50-2000 m/z. Data were collected in the HDMS^E mode. A single pass of the cyclic IMS was conducted. A “blank” sample of protein dilution buffer with quench was run between samples, and carry-over of peptides was routinely monitored. Five replicates were used to identify non-deuterated peptides. Criteria used to include peptides in the HDX-MS dataset were: minimum intensity 5000, minimum sequence length 5, maximum sequence length 25, a minimum of 3 fragment ions, a minimum of 0.1 products per amino acid, a minimum score of 6.62, a maximum MH+ Error of 10 ppm, identification in at least two datasets with a retention time RSD of less than 10%. Data was analysed using Protein Lynx Global Server (Waters) and DynamX (Waters). All peptides were manually inspected for EX1 kinetics and sufficient quality of the peptide envelope. Data quality, experiment design, and reporting of data meets the criteria as determined by the HDX-MS community. Uptake files were created using Baryonyx. Data are available via ProteomeXchange with identifier PXD037721.

[1] = PK3CA_HUMAN peptide 177-186, time point 1 of 5
[2] = PK3CA_HUMAN peptide 177-186, time point 2 of 5
[3] = PK3CA_HUMAN peptide 177-186, time point 3 of 5
[4] = PK3CA_HUMAN peptide 177-186, time point 4 of 5
[5] = PK3CA_HUMAN peptide 177-186, time point 5 of 5
[6] = PK3CA_HUMAN peptide 186-202, time point 1 of 5
[7] = PK3CA_HUMAN peptide 186-202, time point 2 of 5
[8] = PK3CA_HUMAN peptide 186-202, time point 3 of 5
[9] = PK3CA_HUMAN peptide 186-202, time point 4 of 5
[10] = PK3CA_HUMAN peptide 186-202, time point 5 of 5
[11] = PK3CA_HUMAN peptide 207-219, time point 1 of 5
[12] = PK3CA_HUMAN peptide 207-219, time point 2 of 5
[13] = PK3CA_HUMAN peptide 207-219, time point 3 of 5
[14] = PK3CA_HUMAN peptide 207-219, time point 4 of 5
[15] = PK3CA_HUMAN peptide 207-219, time point 5 of 5
[16] = PK3CA_HUMAN peptide 220-237, time point 1 of 5
[17] = PK3CA_HUMAN peptide 220-237, time point 2 of 5
[18] = PK3CA_HUMAN peptide 220-237, time point 3 of 5
[19] = PK3CA_HUMAN peptide 220-237, time point 4 of 5
[20] = PK3CA_HUMAN peptide 220-237, time point 5 of 5
[21] = PK3CA_HUMAN peptide 224-238, time point 1 of 5
[22] = PK3CA_HUMAN peptide 224-238, time point 2 of 5
[23] = PK3CA_HUMAN peptide 224-238, time point 3 of 5
[24] = PK3CA_HUMAN peptide 224-238, time point 4 of 5
[25] = PK3CA_HUMAN peptide 224-238, time point 5 of 5
[26] = PK3CA_HUMAN peptide 238-250, time point 1 of 5
[27] = PK3CA_HUMAN peptide 238-250, time point 2 of 5
[28] = PK3CA_HUMAN peptide 238-250, time point 3 of 5
[29] = PK3CA_HUMAN peptide 238-250, time point 4 of 5
[30] = PK3CA_HUMAN peptide 238-250, time point 5 of 5
[31] = PK3CA_HUMAN peptide 238-259, time point 1 of 5
[32] = PK3CA_HUMAN peptide 238-259, time point 2 of 5
[33] = PK3CA_HUMAN peptide 238-259, time point 3 of 5
[34] = PK3CA_HUMAN peptide 238-259, time point 4 of 5
[35] = PK3CA_HUMAN peptide 238-259, time point 5 of 5
[36] = PK3CA_HUMAN peptide 241-250, time point 1 of 5
[37] = PK3CA_HUMAN peptide 241-250, time point 2 of 5

T1 sequence (P42336 whole entry): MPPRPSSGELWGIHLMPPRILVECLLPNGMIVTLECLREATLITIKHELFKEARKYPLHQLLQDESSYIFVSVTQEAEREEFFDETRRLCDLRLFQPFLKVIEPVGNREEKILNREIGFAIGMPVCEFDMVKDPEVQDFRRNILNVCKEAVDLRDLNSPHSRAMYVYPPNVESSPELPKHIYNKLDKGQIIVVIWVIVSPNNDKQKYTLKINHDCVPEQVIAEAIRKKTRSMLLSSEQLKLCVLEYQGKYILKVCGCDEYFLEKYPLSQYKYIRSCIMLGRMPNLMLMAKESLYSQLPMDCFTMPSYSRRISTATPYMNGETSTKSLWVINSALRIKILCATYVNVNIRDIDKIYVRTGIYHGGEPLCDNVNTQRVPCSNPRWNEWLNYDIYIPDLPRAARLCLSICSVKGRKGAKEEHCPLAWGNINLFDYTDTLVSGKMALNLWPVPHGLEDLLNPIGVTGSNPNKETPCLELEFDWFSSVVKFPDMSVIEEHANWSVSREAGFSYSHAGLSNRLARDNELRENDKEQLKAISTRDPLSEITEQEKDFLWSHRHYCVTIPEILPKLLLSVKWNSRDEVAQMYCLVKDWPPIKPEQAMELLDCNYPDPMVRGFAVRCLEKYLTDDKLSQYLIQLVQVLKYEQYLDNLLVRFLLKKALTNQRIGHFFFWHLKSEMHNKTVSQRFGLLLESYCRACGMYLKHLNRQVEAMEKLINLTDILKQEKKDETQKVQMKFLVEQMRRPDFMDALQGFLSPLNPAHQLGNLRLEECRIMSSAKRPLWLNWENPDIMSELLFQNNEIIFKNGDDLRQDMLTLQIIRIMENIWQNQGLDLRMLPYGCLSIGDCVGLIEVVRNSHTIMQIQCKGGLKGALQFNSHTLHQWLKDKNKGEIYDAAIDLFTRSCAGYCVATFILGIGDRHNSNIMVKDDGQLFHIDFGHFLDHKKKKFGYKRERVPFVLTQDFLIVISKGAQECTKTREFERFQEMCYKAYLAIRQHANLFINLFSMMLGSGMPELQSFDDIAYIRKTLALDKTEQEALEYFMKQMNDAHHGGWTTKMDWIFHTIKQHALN
T1 sequence (P27986 whole entry partner): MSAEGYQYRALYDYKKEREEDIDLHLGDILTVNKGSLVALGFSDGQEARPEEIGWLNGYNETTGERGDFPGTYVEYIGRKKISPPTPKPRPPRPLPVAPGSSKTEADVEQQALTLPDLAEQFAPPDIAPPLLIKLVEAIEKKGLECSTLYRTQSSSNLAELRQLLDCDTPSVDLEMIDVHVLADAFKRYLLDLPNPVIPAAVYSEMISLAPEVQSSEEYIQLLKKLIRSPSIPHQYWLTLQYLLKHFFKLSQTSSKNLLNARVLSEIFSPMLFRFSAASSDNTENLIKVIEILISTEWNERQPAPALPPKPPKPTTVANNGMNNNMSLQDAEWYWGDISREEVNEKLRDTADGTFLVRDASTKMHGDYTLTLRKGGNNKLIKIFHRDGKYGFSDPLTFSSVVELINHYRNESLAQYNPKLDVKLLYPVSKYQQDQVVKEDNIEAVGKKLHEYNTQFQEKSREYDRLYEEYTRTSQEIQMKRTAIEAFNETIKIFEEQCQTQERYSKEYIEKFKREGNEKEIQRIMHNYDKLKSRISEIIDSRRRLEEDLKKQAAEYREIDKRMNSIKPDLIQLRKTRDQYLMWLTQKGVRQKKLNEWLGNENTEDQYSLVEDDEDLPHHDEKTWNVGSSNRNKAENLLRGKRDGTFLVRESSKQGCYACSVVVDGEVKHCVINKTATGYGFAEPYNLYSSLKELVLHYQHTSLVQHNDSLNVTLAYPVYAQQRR

With `CCN1CCN(c2ccc(Nc3cc(Nc4cccc5c4N(C(C)=O)CC5)ccn3)cc2)CC1` [Compound 1938] the “changes in HDX-MS protection of PI3Kα” value (250 μM 1938 or 5 μM BYL719) was “protection of a region in the C-terminus of the kinase domain consisting of amino acids (AA) 1002-1016 of p110α”, the “HDX difference (%D)” value [1] was -1.1% and the “HDX difference (Da)” value [1] was -0.10 Da. For the same compound, the “HDX difference (%D)” value [2] was 0.188%, the “HDX difference (Da)” value [2] was 0.0169 Da and the “HDX difference (%D)” value [3] was 0.0654%. For the same compound, the “HDX difference (Da)” value [3] was 0.00589 Da, the “HDX difference (%D)” value [4] was -0.325% and the “HDX difference (Da)” value [4] was -0.03 Da. For the same compound, the “HDX difference (%D)” value [5] was -0.186%, the “HDX difference (Da)” value [5] was -0.0168 Da and the “HDX difference (%D)” value [6] was -0.741%. The “HDX difference (Da)” value [6] was -0.10 Da, the “HDX difference (%D)” value [7] was 0.268% and the “HDX difference (Da)” value [7] was 0.0349 Da. The “HDX difference (%D)” value [8] was 0.253%, the “HDX difference (Da)” value [8] was 0.0328 Da and the “HDX difference (%D)” value [9] was -0.11%. The “HDX difference (Da)” value [9] was -0.0143 Da, the “HDX difference (%D)” value [10] was -0.0482% and the “HDX difference (Da)” value [10] was -0.00626 Da. The “HDX difference (%D)” value [11] was -0.6%, the “HDX difference (Da)” value [11] was -0.07 Da and the “HDX difference (%D)” value [12] was 0.1%. For the same compound, the “HDX difference (Da)” value [12] was 0.0108 Da, the “HDX difference (%D)” value [13] was 0.0043% and the “HDX difference (Da)” value [13] was 0.000474 Da. For the same compound, the “HDX difference (%D)” value [14] was -0.136%, the “HDX difference (Da)” value [14] was -0.0149 Da and the “HDX difference (%D)” value [15] was -0.4%. For the same compound, the “HDX difference (Da)” value [15] was -0.0435 Da, the “HDX difference (%D)” value [16] was -0.3% and the “HDX difference (Da)” value [16] was -0.0451 Da. The “HDX difference (%D)” value [17] was 0.0936%, the “HDX difference (Da)” value [17] was 0.014 Da and the “HDX difference (%D)” value [18] was 0.319%. For the same compound, the “HDX difference (Da)” value [18] was 0.05 Da, the “HDX difference (%D)” value [19] was -0.0933% and the “HDX difference (Da)” value [19] was -0.014 Da. For the same compound, the “HDX difference (%D)” value [20] was -0.152%, the “HDX difference (Da)” value [20] was -0.0229 Da and the “HDX difference (%D)” value [21] was -0.8%. For the same compound, the “HDX difference (Da)” value [21] was -0.0951 Da, the “HDX difference (%D)” value [22] was 0.43% and the “HDX difference (Da)” value [22] was 0.05 Da. The “HDX difference (%D)” value [23] was 0.056%, the “HDX difference (Da)” value [23] was 0.00672 Da and the “HDX difference (%D)” value [24] was 0.37%. The “HDX difference (Da)” value [24] was 0.0444 Da, the “HDX difference (%D)” value [25] was 0.9% and the “HDX difference (Da)” value [25] was 0.11 Da. The “HDX difference (%D)” value [26] was -0.317%, the “HDX difference (Da)” value [26] was -0.038 Da and the “HDX difference (%D)” value [27] was 0.158%. For the same compound, the “HDX difference (Da)” value [27] was 0.019 Da, the “HDX difference (%D)” value [28] was 0.185% and the “HDX difference (Da)” value [28] was 0.0222 Da. The “HDX difference (%D)” value [29] was -0.357%, the “HDX difference (Da)” value [29] was -0.0429 Da and the “HDX difference (%D)” value [30] was 0.02%. The “HDX difference (Da)” value [30] was 0.00239 Da, the “HDX difference (%D)” value [31] was -0.7% and the “HDX difference (Da)” value [31] was -0.15 Da. The “HDX difference (%D)” value [32] was 0.262%, the “HDX difference (Da)” value [32] was 0.0549 Da and the “HDX difference (%D)” value [33] was 0.265%. For the same compound, the “HDX difference (Da)” value [33] was 0.0556 Da, the “HDX difference (%D)” value [34] was -0.134% and the “HDX difference (Da)” value [34] was -0.0282 Da. The “HDX difference (%D)” value [35] was -0.22%, the “HDX difference (Da)” value [35] was -0.0463 Da and the “HDX difference (%D)” value [36] was -0.43%. The “HDX difference (Da)” value [36] was -0.04 Da, the “HDX difference (%D)” value [37] was 0.2% and the “HDX difference (Da)” value [37] was 0.0181 Da.
